Patent publication US8609836B2, “4-aryl-2-anilino-pyrimidines” (Janssen Pharmaceutica NV, priority 2008, dated 2013)

How the values were obtained:
PLK1 T210D (h) = PLK1 T210D (h) (Homo sapiens, UniProt P53350, T210D); assay: PLK1 human kinase inhibition, SPA; format: biochemical; settings: read-out: PLK1 pIC50 (converted)
Summary of the method: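 Kinase incubated 40 min at room temperature with 0.1 μM ATP (2 nM [γ-33P]ATP tracer), 2 μM biotinylated peptide, pH 8.0 Hepes buffer with 2 mM MnCl2 and 1 mM DTT; enzyme at 0.125 ng/ml. Stopped with EDTA; 33P-peptide bound to streptavidin scintillant beads and imaged.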

MDA-MB-231 = assay: Cellular proliferation assay (Alamar blue), MDA-MB-231; format: cell-based; settings: Homo sapiens, 10% FCS, 72 hours with compound, Alamar blue 24 h, read-out: MDA/MB231 (cellular proliferation assay, Table 4) (converted)
Summary of the method: (§1)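 Alamar blue fluorescence (544/590 nm) measured viable cells after 72 h compound exposure; dye incubation 4 h (HCT-116), 6 h (U87-MG) or 24 h (A2780, MDA-MB-231). Cells pre-seeded 24 h, grown in 10% FCS, 37° C, 5% CO2; effect expressed relative to control cells.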

HCT-116 = assay: Cellular proliferation assay (Alamar blue), HCT-116; format: cell-based; settings: Homo sapiens, 10% FCS, 72 hours with compound, Alamar blue 4 h
Summary of the method: as §1

H1299 = assay: Cellular proliferation assay (Alamar blue), H1299; format: cell-based; settings: Homo sapiens, NCI-H1299; 10% FCS; 72 hours with compound; Alamar blue 4 h
Summary of the method: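 This proliferation assay on NCI-H1299 cells used an initial 24-hour compound-free incubation after seeding, followed by 72 hours of compound treatment with 10% FCS serum at 37° C. and 5% (v/v) CO2. Viable cells were quantified by a 4 h Alamar blue incubation and fluorescent plate reading at 544 nm/590 nm, and effects were expressed relative to control cells.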

PLK4 (h) = PLK4 (h) (Homo sapiens, UniProt O00444); assay: PLK-4 human kinase inhibition, scintillation proximity assay (SPA); format: biochemical; settings: read-out: PLK4 pIC50 (converted)
AuroraB (h) = AuroraB (h) (Homo sapiens, UniProt Q96GD4); assay: Aurora-B human kinase inhibition, SPA; format: biochemical; settings: read-out: AuroraB pIC50 (converted)
Summary of the method: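 AuroraB (0.5 μg/ml) phosphorylates 3 μM biotin-peptide using 0.5 μM ATP spiked with 33P-ATP in Hepes pH 7.5 with 3 mM MgCl2 and MnCl2, for 60 min at room temperature. EDTA stop solution carries streptavidin scintillant beads, and the captured radiolabel is imaged.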

A2780 = assay: Cellular proliferation assay (Alamar blue), A2780; format: cell-based; settings: Homo sapiens, 10% FCS, 72 hours with compound, Alamar blue 24 h, read-out: A2780 (cellular proliferation assay, Table 4) (converted)
Summary of the method: as §1

CDK1/CyclinB (h) = CDK1/CyclinB (h) (Homo sapiens, UniProt P06493); assay: CDK1/CyclinB human kinase inhibition, Invitrogen's FRET assay (Z'lyte); format: biochemical; settings: read-out: CDK1 pIC50 (converted)
Summary of the method: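 Read-out is the 460 nm/538 nm emission ratio (390 nm excitation) after a 60 min protease development step. Before that, 10 μM ATP and 2 μM Z'lyte Ser/Thr peptide 12 react 60 min at room temperature with 0.2 μg/ml human CDK1/CyclinB in Hepes pH 7.5 containing MgCl2, EGTA and Brij-35.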

PLK3 (h) = PLK3 (h) (Homo sapiens, UniProt Q9H4B4); assay: PLK3 human kinase inhibition, SPA; format: biochemical; settings: read-out: PLK3 pIC50 (converted)
Summary of the method: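 Radiometric scintillation proximity format at pH 8.0 (Hepes, MnCl2, DTT). The 2 μM biotin-peptide substrate is phosphorylated by PLK3 (h) (30 μg/ml) using 0.1 μM ATP traced with 33P, for 20 min at room temperature. EDTA stop; phosphopeptide captured on streptavidin beads and imaged.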

AuroraB (h), sequence (Q96GD4 whole entry): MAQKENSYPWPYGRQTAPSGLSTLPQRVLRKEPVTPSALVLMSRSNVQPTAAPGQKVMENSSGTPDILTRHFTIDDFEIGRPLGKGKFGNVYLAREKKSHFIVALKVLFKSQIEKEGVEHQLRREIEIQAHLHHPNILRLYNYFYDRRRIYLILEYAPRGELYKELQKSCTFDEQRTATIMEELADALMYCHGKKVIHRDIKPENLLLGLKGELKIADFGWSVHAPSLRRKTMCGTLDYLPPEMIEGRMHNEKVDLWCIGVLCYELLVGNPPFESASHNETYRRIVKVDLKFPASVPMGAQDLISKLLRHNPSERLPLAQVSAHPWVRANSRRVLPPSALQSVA
CDK1/CyclinB (h), sequence (P06493 whole entry): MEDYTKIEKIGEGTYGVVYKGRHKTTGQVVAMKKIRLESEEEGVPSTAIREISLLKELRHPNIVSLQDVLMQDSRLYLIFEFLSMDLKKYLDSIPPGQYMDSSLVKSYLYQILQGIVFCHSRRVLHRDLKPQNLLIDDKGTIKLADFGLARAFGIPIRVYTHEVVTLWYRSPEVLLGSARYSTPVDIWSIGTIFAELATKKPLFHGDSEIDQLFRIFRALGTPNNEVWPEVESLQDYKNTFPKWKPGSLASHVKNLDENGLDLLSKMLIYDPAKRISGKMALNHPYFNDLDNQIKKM
CDK1/CyclinB (h), sequence (P14635 whole entry partner): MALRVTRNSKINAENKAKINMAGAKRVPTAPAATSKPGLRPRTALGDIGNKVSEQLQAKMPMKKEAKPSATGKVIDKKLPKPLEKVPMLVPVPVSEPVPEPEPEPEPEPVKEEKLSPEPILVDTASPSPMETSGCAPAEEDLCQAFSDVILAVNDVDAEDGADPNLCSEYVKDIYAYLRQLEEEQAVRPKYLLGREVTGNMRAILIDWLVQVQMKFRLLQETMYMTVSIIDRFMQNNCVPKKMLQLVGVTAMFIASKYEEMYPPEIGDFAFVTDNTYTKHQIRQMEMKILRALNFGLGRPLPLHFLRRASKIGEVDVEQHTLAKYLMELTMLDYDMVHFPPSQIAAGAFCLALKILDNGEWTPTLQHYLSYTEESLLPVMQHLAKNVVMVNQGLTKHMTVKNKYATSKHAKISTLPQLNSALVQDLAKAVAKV
PLK1 T210D (h), sequence (P53350 whole entry T210D): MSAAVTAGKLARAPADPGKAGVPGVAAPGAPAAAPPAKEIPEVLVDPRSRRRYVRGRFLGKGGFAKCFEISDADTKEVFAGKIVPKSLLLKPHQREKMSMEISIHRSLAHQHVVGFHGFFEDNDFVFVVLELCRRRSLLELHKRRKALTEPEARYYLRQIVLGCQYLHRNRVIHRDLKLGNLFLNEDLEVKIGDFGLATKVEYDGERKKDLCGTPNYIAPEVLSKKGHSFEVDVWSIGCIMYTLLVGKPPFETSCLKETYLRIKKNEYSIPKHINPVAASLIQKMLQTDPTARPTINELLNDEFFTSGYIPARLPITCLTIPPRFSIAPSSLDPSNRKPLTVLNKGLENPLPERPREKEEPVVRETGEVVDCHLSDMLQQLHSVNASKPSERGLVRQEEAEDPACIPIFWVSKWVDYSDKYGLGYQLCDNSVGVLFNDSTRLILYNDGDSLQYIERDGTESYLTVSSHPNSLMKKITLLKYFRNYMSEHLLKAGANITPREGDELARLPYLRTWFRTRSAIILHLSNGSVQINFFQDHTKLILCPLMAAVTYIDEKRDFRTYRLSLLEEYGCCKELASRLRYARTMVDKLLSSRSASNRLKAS
PLK3 (h), sequence (Q9H4B4 whole entry): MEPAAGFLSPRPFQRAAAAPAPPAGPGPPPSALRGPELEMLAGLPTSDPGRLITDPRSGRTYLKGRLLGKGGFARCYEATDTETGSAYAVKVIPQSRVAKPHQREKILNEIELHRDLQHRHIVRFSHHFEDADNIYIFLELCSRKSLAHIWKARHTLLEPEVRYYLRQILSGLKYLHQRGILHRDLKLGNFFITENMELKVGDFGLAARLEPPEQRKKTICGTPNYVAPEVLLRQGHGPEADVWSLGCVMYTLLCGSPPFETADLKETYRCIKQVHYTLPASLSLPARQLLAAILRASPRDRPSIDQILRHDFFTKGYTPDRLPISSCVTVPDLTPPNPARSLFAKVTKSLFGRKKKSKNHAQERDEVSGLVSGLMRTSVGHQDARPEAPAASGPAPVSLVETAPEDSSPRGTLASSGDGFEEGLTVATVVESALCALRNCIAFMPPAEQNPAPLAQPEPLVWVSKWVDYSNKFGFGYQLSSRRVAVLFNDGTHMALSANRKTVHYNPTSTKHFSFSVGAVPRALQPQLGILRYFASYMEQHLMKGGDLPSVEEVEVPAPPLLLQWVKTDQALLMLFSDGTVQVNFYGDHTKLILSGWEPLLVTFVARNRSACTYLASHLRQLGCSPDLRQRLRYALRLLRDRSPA
PLK4 (h), sequence (O00444 whole entry): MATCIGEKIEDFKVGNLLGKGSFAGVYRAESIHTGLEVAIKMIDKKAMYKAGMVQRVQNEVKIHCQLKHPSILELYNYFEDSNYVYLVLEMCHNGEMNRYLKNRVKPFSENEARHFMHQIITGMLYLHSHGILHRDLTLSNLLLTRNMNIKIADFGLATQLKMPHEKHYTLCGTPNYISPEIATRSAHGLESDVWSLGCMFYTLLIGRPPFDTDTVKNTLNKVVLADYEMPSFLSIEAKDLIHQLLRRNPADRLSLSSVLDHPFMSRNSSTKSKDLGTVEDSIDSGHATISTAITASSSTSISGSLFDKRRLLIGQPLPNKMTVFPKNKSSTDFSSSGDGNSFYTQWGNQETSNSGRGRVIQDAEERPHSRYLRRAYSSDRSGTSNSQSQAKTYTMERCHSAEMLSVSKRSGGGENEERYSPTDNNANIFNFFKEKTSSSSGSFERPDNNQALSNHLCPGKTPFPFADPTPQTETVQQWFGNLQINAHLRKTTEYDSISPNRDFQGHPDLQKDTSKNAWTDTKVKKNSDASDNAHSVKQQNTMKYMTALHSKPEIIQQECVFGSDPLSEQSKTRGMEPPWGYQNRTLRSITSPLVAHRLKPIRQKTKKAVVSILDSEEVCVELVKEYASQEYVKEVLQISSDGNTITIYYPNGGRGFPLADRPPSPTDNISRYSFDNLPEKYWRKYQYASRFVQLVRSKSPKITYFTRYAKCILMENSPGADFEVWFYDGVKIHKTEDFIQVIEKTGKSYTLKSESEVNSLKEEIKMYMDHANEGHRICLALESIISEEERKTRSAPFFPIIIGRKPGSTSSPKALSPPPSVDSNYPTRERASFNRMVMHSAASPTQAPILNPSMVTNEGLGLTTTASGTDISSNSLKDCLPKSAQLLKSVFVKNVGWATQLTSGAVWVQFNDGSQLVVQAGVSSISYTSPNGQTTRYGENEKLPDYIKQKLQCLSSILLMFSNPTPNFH

Row | SMILES | IC50 (PLK1 T210D (h)) [µM] | IC50 (MDA-MB-231) [µM] | IC50 (HCT-116) [µM] | IC50 (H1299) [µM] | IC50 (PLK4 (h)) [µM] | IC50 (AuroraB (h)) [µM] | IC50 (A2780) [µM] | IC50 (CDK1/CyclinB (h)) [µM] | IC50 (PLK3 (h)) [µM]
1 | O=C1NCc2cccc(c2)-c2ccnc(n2)Nc2ccc(N3CCOCC3)c(c2)CN2CCC[C@@H]12 [Compound 1] | > 10 | > 10 | 3.8 | 6.92 | 0.0479 | 4.37 | 2.34 | 4.17 | > 10
2 | COc1ccc2cc1CN1CCC(CC1)C(=O)N(C)CCN(C)c1ccc(cn1)-c1ccnc(n1)N2 [Compound 4] | > 10 | > 10 | 5.25 | > 10 | 2.4 | > 10 | > 10 | > 10 | > 10
3 | C[C@@H]1NCc2cc(ccc2N2CCOCC2)Nc2nccc(n2)-c2ccc(cc2)OCCCNC1=O [Compound 5] | > 10 | > 10 | 1.74 | > 10 | 0.162 | > 10 | > 10 | > 10 | > 10
4 | O=C1NCCOc2ccc(cc2)-c2ccnc(n2)Nc2ccc(N3CCOCC3)c(c2)CN2CCC1CC2 [Compound 6] | > 10 | 0.363 | 0.105 | 0.38 | 0.316 | 1.66 | 0.195 | 0.195 | > 10
5 | O=C1NCCCOc2ccc(cc2)-c2ccnc(n2)Nc2ccc(N3CCOCC3)c(c2)CN2CCC[C@@H]12 [Compound 7] | > 10 | > 10 | 6.03 | > 10 | 0.316 | 6.31 | > 10 | 3.47 | > 10
6 | O=C1CN2CCN(CC2)Cc2cc(ccc2N2CCOCC2)Nc2nccc(n2)-c2ccc(cc2)OCCN1 [Compound 9] | > 10 | > 10 | 7.76 | > 10 | 0.417 | > 10 | > 10 | > 10 | > 10
7 | CN1CCCNC(=O)[C@H](CO)NCc2cc(cc(N3CCOCC3)c2)Nc2nccc(n2)-c2ccc(cc2)C1 [Compound 10] | > 10 | > 10 | > 10 | > 10 | 0.513 | 9.33 | > 10 | > 10 | > 10
8 | COc1ccc2cc1CN1CCN(CC1)CC(=O)N(C)CCN(C)c1ccc(cn1)-c1ccnc(n1)N2 [Compound 14] | > 10 | > 10 | 5.89 | > 10 | 1.35 | > 10 | > 10 | > 3.02 | > 10
9 | CN1CCCNC(=O)[C@@H]2CCCN2Cc2cc(cc(N3CCOCC3)c2)Nc2nccc(n2)-c2ccc(cc2)C1 [Compound 16] | > 10 | > 10 | > 10 | > 10 | 0.617 | > 10 | 9.55 | > 10 | > 10
10 | O=C1NCCCc2cc(ccn2)-c2ccnc(n2)Nc2cccc(c2)CN[C@H]1CO [Compound 19] | > 10 | 6.17 | 0.724 |  | 1.2 | > 10 | 1.45 | 0.0562 | > 10
11 | O=C1CN2CCN(CC2)Cc2cccc(c2)Nc2nccc(n2)-c2ccnc(c2)CCCN1 [Compound 21] | > 10 | > 10 | 2.29 |  | 4.27 | > 10 | 7.59 | 0.105 | > 10
12 | O=C1NCc2cccc(c2)-c2ccnc(n2)Nc2cc(CN3CCOCC3)cc(c2)CN2CCC[C@@H]12 [Compound 22] | > 10 | 1.7 | 0.174 | 2.75 | 0.0692 | 10.2 | 0.437 | 0.251 | > 10
13 | CN(C)C(=O)c1ccc2cc1CN1CCC[C@H]1C(=O)NCc1cccc(c1)-c1ccnc(n1)N2 [Compound 24] | > 10 | > 10 | 3.8 | > 10 | 0.0776 | > 10 | 5.89 | > 10 | > 10
14 | O=C1NCc2cccc(c2)-c2ccnc(n2)Nc2cc(CNC3CCOCC3)cc(c2)CN2CCC[C@@H]12 [Compound 29] | > 10 | 2.09 | 0.646 | 3.8 | 0.162 | > 10 | 0.708 | 0.676 | > 10
15 | CN(C)Cc1cc2cc(c1)Nc1nccc(n1)-c1cccc(c1)CNC(=O)[C@@H]1CCCN1C2 [Compound 30] | > 10 | 0.257 | 0.107 | 0.191 | 0.162 | > 10 | 0.174 | 0.269 | > 10
16 | CN(C)CCNCc1cc2cc(c1)Nc1nccc(n1)-c1cccc(c1)CNC(=O)[C@@H]1CCCN1C2 [Compound 31] | > 10 | 1.55 | 1.02 | 1.78 | 0.166 | > 10 | 5.01 | 0.933 | > 10
17 | COCCNCc1cc2cc(c1)Nc1nccc(n1)-c1cccc(c1)CNC(=O)[C@@H]1CCCN1C2 [Compound 33] | > 10 | 0.832 | 0.126 | 1.1 | 0.178 | 8.32 | 0.224 | 0.537 | > 10
18 | O=C1NCc2cccc(c2)-c2ccnc(n2)Nc2cc(CNC3CCCCC3)cc(c2)CN2CCC[C@@H]12 [Compound 36] | > 10 | 1.82 | 0.372 | 3.39 | 0.219 | 8.13 | 0.55 | 0.457 | > 10
19 | COCCNC(=O)c1ccc2cc1CN1CCC[C@H]1C(=O)NCc1cccc(c1)-c1ccnc(n1)N2 [Compound 40] | > 10 | > 10 | 2.19 | > 10 | 0.288 | > 10 | 4.68 | 3.09 | > 10
20 | O=C(NC1CCCCC1)c1ccc2cc1CN1CCC[C@H]1C(=O)NCc1cccc(c1)-c1ccnc(n1)N2 [Compound 41] | > 10 | > 10 | 3.89 | > 10 | 0.347 | > 10 | > 10 | > 10 | > 10
21 | CN(C)CCNC(=O)c1ccc2cc1CN1CCC[C@H]1C(=O)NCc1cccc(c1)-c1ccnc(n1)N2 [Compound 42] | > 10 | 1.91 | 0.955 | 3.39 | 0.355 | > 10 | 1.45 | ~1.35 | > 3.02
22 | O=C(NC1CCOCC1)c1ccc2cc1CN1CCC[C@H]1C(=O)NCc1cccc(c1)-c1ccnc(n1)N2 [Compound 46] | > 10 | > 10 | 2.24 | > 10 | 0.427 | > 10 | 5.5 | > 10 | > 10
23 | O=C1NCCCc2cc(ccn2)-c2ccnc(n2)Nc2ccc(N3CCOCC3)c(c2)CN2CCCC12 (stereo not shown) [Compound 48] | > 10 | > 10 | > 10 | > 10 | 0.661 | > 10 | > 10 | > 10 | > 10
